The text below walks through data of patent US20100004159A1, “SUBSTITUTED IMIDAZOLONE DERIVATIVES, PREPARATIONS AND USES” (GENFIT, priority 2006, published 2010).

In the case of `CCCCC1=NC2(CCCC2)C(=O)N1Cc1ccc(-c2cccc(OC(CC)c3nnn[nH]3)c2)cc1` (centres unmarked) [Compound 99, 2-butyl-1-[(3′-((1-(tetrazol-5-yl)-1-ethylmethyl)oxy)-biophenyl-4-yl)methyl]-4-spirocyclopentyl-1H-imidazol-5(4H)-one], the melting point – broadly, the temperature, or range, at which the solid turns liquid – came to 76 °C.
Consider `CCCCC1=NC2(CCCC2)C(=O)N1CCc1ccc(OC(C)(C)C(=O)O)cc1` [Compound 3, 2-butyl-1-[2-(4-((1-carboxy-1,1-dimethylmethyl)oxy)phenyl)ethyl]-4-spirocyclopentyl-1H-imidazol-5(4H)-one], for which the melting point fell in the range of 50 to 53 °C.
`CCCCC1=NC(CC)(CC)C(=O)N1Cc1ccc(-c2cccc(OC(C)(C)C(=O)O)c2)cc1` [Compound 65, 2-butyl-1-[(3′-((1-carboxy-1,1-dimethylmethyl)oxy)biphenyl-4-yl)methyl]-4,4-diethyl-1H-imidazol-5(4H)one]: the melting point was found to be 144 °C.
The result for `CCCCC1=NC2(CCCC2)C(=O)N1Cc1ccc(-c2cc(OC(C)(C)C(=O)O)ccc2Br)cc1` [Compound 12, 1-[(6′-bromo-3′-((1-carboxy-1,1-dimethylmethyl)oxy)biphenyl-4-yl)methyl]-2-butyl-4-spirocyclopentyl-1H-imidazol-5(4H)-one] reads 174 to 176 °C; that for `CCCCC1=NC2(CCCC2)C(=O)N1Cc1ccc(-c2cccc(OC(C)(C)C(=O)O)c2)c(OC)c1` [Compound 90], 157 °C.
`CCCCC1=NC2(CCCCC2)C(=O)N1Cc1ccc(-c2cc(OCC(=O)O)ccc2F)cc1` [Compound 56, 2-butyl-1-[(3′-((1-carbonylmethyl)oxy)-6′-fluoro-biphenyl-4-yl)methyl]-4-spirocyclohexyl-1H-imidazol-5(4H)-one] came in with a melting point of 102 to 105 °C.
With `CCCCC1=NC2(CCCC2)C(=O)N1Cc1ccc(-c2cc(OC(C)(C)C(=O)O)ccc2CCC)cc1` [Compound 76, 2-butyl-1-[(3′-((1-carboxy-1,1-dimethylmethyl)oxy)-6′-propyl-biphenyl-4-yl)methyl]-4-spirocyclopentyl-1H-imidazol-5(4H)-one], the melting point was below 60 °C.
For the molecule `CCCCC1=NC(CC)(CC)C(=O)N1Cc1ccc(-c2cccc(OC(C(=O)O)C(C)C)c2)cc1` (centres unmarked) [Compound 63, 2-butyl-1-[(3′-((1-carboxy-1-(1,1-dimethylmethyl)methyl)oxy)-biphenyl-4-yl)methyl]-4,4-diethyl-1H-imidazol-5(4H)-one], the melting point is 65 °C.
Consider `CCCCC1=NC(c2ccccc2)C(=O)N1Cc1ccc(C(=O)c2ccc(OC(C)(C)C(=O)O)cc2)cc1` (centres unmarked) [Compound 20, 2-butyl-1-[[4-[(4-((1-carboxy-1,1-dimethylmethyl)oxy)phenyl)carbonyl]phenyl]methyl]-4-phenyl-1H-imidazol-5(4H)-one], for which the melting point was in the range of 215 to 217 °C.
Molecule `CCCCC1=NC2(CCCC2)C(=O)N1Cc1ccc(-c2cc(OC(CC)C(=O)O)ccc2CCC)cc1` (centres unmarked) [Compound 85, 2-butyl-1-[(3′-((1-carboxy-1-ethylmethyl)oxy)-6′-propyl-biphenyl-4-yl)methyl]-4-spirocyclopentyl-1H-imidazol-5(4H)-one] registered a melting point of 74 °C.
`CC1=NC2(CCCC2)C(=O)N1Cc1ccc(-c2cccc(OC(C)(C)C(=O)O)c2)cc1` [Compound 18, 1-[(3′-((1-carboxy-1,1-dimethylmethyl)oxy)biphenyl-4-yl)methyl]-2-methyl-4-spirocyclopentyl-1H-imidazol-5(4H)-one]: the melting point fell in the range of 81 to 88 °C.
As for `CCCCC1=NC2(CCCC2)C(=O)N1Cc1ccc(-c2cc(OC(C(=O)O)C(C)C)ccc2CCC)cc1` (centres unmarked) [Compound 86, 2-butyl-1-[(3′-((1-carboxy-1-(1,1-dimethylmethyl)methyl)oxy)-6′-propyl-biphenyl-4-yl)methyl]-4-spirocyclopentyl-1H-imidazol-5(4H)-one], the melting point was 81 °C.
For the molecule `CCCCC1=NC(CC)(CC)C(=O)N1Cc1ccc(-c2cc(OC(C(=O)O)C(C)C)ccc2F)cc1` (centres unmarked) [Compound 68, 2-butyl-1-[(3′-((1-carboxy-1-(1,1-dimethylmethyl)methyl)oxy)-6′-fluoro-biphenyl-4-yl)methyl]-4,4-diethyl-1H-imidazol-5(4H)one], the melting point came to 65 °C.
For the molecule `CCCCC1=NC2(CCCC2)C(=O)N1Cc1ccc(-c2ccccc2OC(C)(C)C(=O)O)cc1` [Compound 6, 2-butyl-1-[(2′-((1-carboxy-1,1-dimethylmethyl)oxy)biphenyl-4-yl)methyl]-4-spirocyclopentyl-1H-imidazol-5(4H)-one], the melting point lay in the range of 74 to 80 °C.
On to `CCCCC1=NC2(CCCCC2)C(=O)N1Cc1ccc(-c2cccc(OC(CC)C(=O)O)c2)c(C)c1` (centres unmarked) [Compound 71, 2-butyl-1-[(3′-((1-carboxy-1-ethylmethyl)oxy)-3-methyl-biphenyl-4-yl)methyl]-4-spirocyclohexyl-1H-imidazol-5(4H)one], for which the melting point is 77 °C.
The molecule `CCCCC1=NC2(CCCC2)C(=O)N1Cc1ccc(-c2cccc(OC(C)(C)C(=O)O)c2)cc1C` [Compound 91] yielded a melting point of 160 °C.
As to `CCCCC1=NC(CC)(CC)C(=O)N1Cc1ccc(-c2cccc(OC(CC)C(=O)O)c2)cc1` (centres unmarked) [Compound 64, 2-butyl-1-[(3′-((1-carboxy-1-ethylmethyl)oxy)biphenyl-4-yl)methyl]-4,4-diethyl-1H-imidazol-5(4H)one], the melting point stood at 184 °C.
In turn, `CCCCC1=NC(C)(C)C(=O)N1Cc1ccc(C(=O)c2cccc(OC(C)(C)C(=O)O)c2)cc1` [Compound 14, 2-butyl-1-[[4-[(3-((1-carboxyl-1,1-dimethylmethyl)oxy)phenyl)carbonyl]phenyl]methyl]-4,4-dimethyl-1H-imidazol-5(4H)-one] displayed a melting point of 167 to 169 °C.
In turn, `CCCCC1=NC2(CCCC2)C(=O)N1Cc1ccc(-c2cc(OC(C)(C)C(=O)O)ccc2CC(C)C)cc1` [Compound 87, 2-butyl-1-[(3∝-((1-carboxy-1,1-dimethylmethyl)oxy)-6′-isobutyl-biphenyl-4-yl)methyl]-4-spirocyclopentyl-1H-imidazol-5(4H )-one] registered a melting point below 50 °C.
`CCCCC1=NC2(CCCC2)C(=O)N1Cc1cccc(-c2cccc(OC(C)(C)C(=O)O)c2)c1` [Compound 74, 2-butyl-1-[(3′-((1-carboxy-1,1-dimethylmethyl)oxy)biphenyl-3-yl)methyl]-4-spirocyclopentyl-1H-imidazol-5(4H)-one] yielded a melting point of 70 °C.
Under `CCCCC1=NC2(CCCC2)C(=O)N1Cc1cccc(-c2ccc(OC(C)(C)C(=O)O)cc2)c1` [Compound 77, 2-butyl-1-[(4′-((1-carboxy-1,1-dimethylmethyl)oxy)biphenyl-3-yl)methyl]-4-spirocyclopentyl-1H-imidazol-5(4H)-one] stands 170 °C; under `CCCCC1=NC2(CCCC2)C(=O)N1Cc1ccc(-c2cc(OC(C)(C)C(=O)O)ccc2C#N)cc1` [Compound 89, 2-butyl-1-[(3′-((1-carboxy-1.1-dimethylmethyl)oxy)-6′-cyano-biphenyl-4-yl)methyl]-4-spirocyclopentyl-1H-imidazol-5(4H)-one], below 50 °C.
`CCCCC1=NC2(CCCCC2)C(=O)N1Cc1ccc(C(=O)c2cccc(OC(C)(C)C(=O)O)c2)cc1` [Compound 11, 2-butyl-1-[[4-[(3-((1-carboxyl-1,1-dimethylmethyl)oxy)phenyl)carbonyl]phenyl]methyl]-4-spirocyclohexyl-1H-imidazol-5(4H)-one] came in with a melting point of 68 to 75 °C.
